Reference: patent publication US9822115B2, “Nitrogen containing compounds and their use as antibacterial agents” (WOCKHARDT LIMITED, priority 2014, dated 2017)
Converted amounts (≈) assume the structure as drawn. Like-named read-outs stand apart in the source and are kept apart here.

Experiments:
[1] = target: T1, Class A beta-lactamase, K. pneumoniae ATCC 700603 (SHV 18) (Klebsiella pneumoniae, UniProt P0AD64, E235K/G234A/R39S); test: biochemical
T1 construct: preincubated mixture of crude enzyme and the agents; endogenous in cells; host or cells: K. pneumoniae ATCC 700603
Procedure, shortened: (§1)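 Crude enzyme preincubated with inhibitor 10 min at 37 °C, then nitrocefin (100 uM) added for 5 min. Absorbance read at 485 nm; IC50 obtained from sigmoidal dose-response fit of absorbance versus concentration.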

[2] = test system: K. pneomoniae S48 (NDM, SHV, TEM); test: Antibacterial activity, MIC by agar dilution (CLSI); format: cell-based, K. pneumoniae; details: Klebsiella pneumoniae; Table 2; K. pneomoniae S48 (NDM, SHV, TEM); read-out: MIC
Procedure, shortened: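 Agar dilution per CLSI on Mueller Hinton agar with doubling compound dilutions, about 10^4 CFU/spot by multipoint inoculator. Plates incubated 16-20 h at 35±2° C in ambient air; procedure also gives 37° C for 18 h. MIC (mcg/ml) scored as growth or no growth.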

[3] = target: T2, Class D beta-lactamase, A. baumannii NCTC 13301 (OXA 23) (Acinetobacter baumannii, UniProt Q9L4P2); test: Beta-lactamase enzyme inhibition (nitrocefin, crude enzyme); format: biochemical; details: Class D A. baumannii NCTC 13301 (OXA 23); read-out: Beta-lactamase enzyme inhibition IC50
T2 construct: preincubated mixture of crude enzyme and the agents; endogenous in cells; host or cells: A. baumannii NCTC 13301
Procedure, shortened: as §1

E. coli NCTC 13352 = test: Antibacterial activity, MIC by agar dilution (CLSI); format: cell-based; details: Escherichia coli, NCTC13352, Table 3
Experimental: (§2) The biological activity of representative compounds according to the invention against various bacterial strains was investigated. In a typical study, overnight grown bacterial cultures were diluted appropriately and inoculated on the agar media containing doubling dilutions of the test compounds. Observations for growth or no growth was performed after 16-20 hours of incubation at 35±2° C. in the ambient air. The overall procedure was performed as per Clinical and Laboratory Standards Institute (CLSI) recommendations, (Clinical and Laboratory Standards Institute (CLSI), Performance Standards for Antimicrobial Susceptibility Testing, 20th Informational Supplement, M07-A9, Volume 32, No. 2, 2012). Molten Mueller Hinton Agar (BD, USA) containing serial dilutions of each antibacterial agent were poured on to the plates and allowed to solidify. Appropriate suspensions from the freshly grown cultures were prepared in normal saline so that about 10^4 CFU/spot of the organism was delivered on to the drug containing agar plates using automated multipoint inoculator (Mast, UK). The plates were incubated in Biochemical oxygen demand (BOD) incubator at 37° C. for 18 hours and then examined for growth.
(§3) Table 3 details the antibacterial activity of representative compound of Formula (I), Sodium salt of (2S,5R)-Sulfuric acid mono-[2-(N′-(4-hydroxyphenyl-acetyl)-hydrazinocarbonyl)-7-oxo-1,6-diaza-bicyclo[3.2.1]oct-6-yl]ester (Compound of Example 1) and Sodium salt of (2S,5R)-Sulfuric acid mono-[2-(N′-(pyridine-2-yl-acetyl)-hydrazinocarbonyl)-7-oxo-1,6-diaza-bicyclo[3.2.1]oct-6-yl] ester (Compound of Example 8), against various Multi Drug Resistant (MDR) Gram-negative bacterial strains.

E. cloacae M 20 = test: as above; format: cell-based; details: Enterobacter cloacae, M20, Table 3
Experimental: as §2, §3

K. pneumoniae S 21 = test: as above; format: cell-based; details: Klebsiella pneumoniae, S21, Table 3
Experimental: as §2, §3

K. pneumoniae H 525 = test: as above; format: cell-based; details: Klebsiella pneumoniae, H525, Table 3
Experimental: as §2, §3

E. coli 7 MP = test: as above; format: cell-based; details: Escherichia coli, Table 3
Experimental: as §2, §3

P. aeruginosa ATCC 27853 = test: as above; format: cell-based; details: Pseudomonas aeruginosa, ATCC27853, Table 3
Experimental: as §2, §3

K. pneumoniae B 88 = test: as above; format: cell-based; details: Klebsiella pneumoniae, B88, Table 3
Experimental: as §2, §3

P. aeruginosa 2779 = test: as above; format: cell-based; details: Pseudomonas aeruginosa, Table 3
Experimental: as §2, §3

C. frundaii 58 MP = test: as above; format: cell-based; details: Table 3
Experimental: as §2, §3

E. coli NCTC 13351 = test: as above; format: cell-based; details: Escherichia coli, NCTC13351, Table 3
Experimental: as §2, §3

P. aeruginosa R 20 = test: as above; format: cell-based; details: Pseudomonas aeruginosa, R20, Table 3
Experimental: as §2, §3

E. coli M 50 = test: as above; format: cell-based; details: Escherichia coli, M50, Table 3
Experimental: as §2, §3

E. coli M 49 = test: as above; format: cell-based; details: Escherichia coli, M49, Table 3
Experimental: as §2, §3

P. aeruginosa PAO1 = test: as above; format: cell-based; details: Pseudomonas aeruginosa, Table 3
Experimental: as §2, §3

E. coli NCTC 13353 = test: Zone of inhibition, compound alone and in combination with ceftazidime (agar well); format: cell-based; details: Escherichia coli, NCTC13353, E. coli NCTC 13353, read-out: Diameter of Zone of Inhibition; for zone of inhibition at 0.25 µg/disc: 0.25 μg/well; for zone of inhibition at 0.5 µg/disc: 0.5 μg/well; for zone of inhibition at 1 µg/disc: 1 μg/well
Experimental: (§4) Determination of antibacterial activity of combinations according to invention: In a typical experiment, two sets of plates containing growth media (Molten Mueller Hilton Agar) and bacterial strains were prepared. One set of plates was taken as control (without ceftazidime) and other set contained ceftazidime. The media was allowed to solidify and wells were punched later. A two-fold serial dilution range of each of the compounds according to invention was prepared and 50 μl of each of the dilution was added into the punched well. […] The Table 5 provides the antibacterial activity of the combination comprising compounds according to invention and ceftazidime.

E. coli M50 = test: as above; format: cell-based; details: Escherichia coli, M50, E. coli M50, read-out: Diameter of Zone of Inhibition; for zone of inhibition at 0.25 µg/disc: 0.25 μg/well; for zone of inhibition at 0.5 µg/disc: 0.5 μg/well; for zone of inhibition at 1 µg/disc: 1 μg/well
Experimental: as §4

[4] = Compound + Ceftazidime (10 μg/ml)

T1 sequence (P0AD64 22-286 R39S/G234A/E235K): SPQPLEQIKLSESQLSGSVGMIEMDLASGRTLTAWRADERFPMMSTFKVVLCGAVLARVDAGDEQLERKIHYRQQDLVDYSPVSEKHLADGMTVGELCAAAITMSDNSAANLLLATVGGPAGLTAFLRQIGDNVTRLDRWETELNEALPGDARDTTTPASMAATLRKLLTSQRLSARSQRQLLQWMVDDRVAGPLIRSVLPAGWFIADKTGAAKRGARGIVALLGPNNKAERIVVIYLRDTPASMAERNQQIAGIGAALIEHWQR
T2 sequence (Q9L4P2 18-273): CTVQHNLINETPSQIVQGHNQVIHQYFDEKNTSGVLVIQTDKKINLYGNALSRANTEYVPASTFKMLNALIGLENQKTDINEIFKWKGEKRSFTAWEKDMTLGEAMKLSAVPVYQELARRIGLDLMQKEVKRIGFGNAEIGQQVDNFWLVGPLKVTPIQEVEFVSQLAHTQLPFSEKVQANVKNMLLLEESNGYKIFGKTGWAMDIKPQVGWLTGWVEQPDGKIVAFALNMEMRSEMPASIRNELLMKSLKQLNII

Row | Compound | IC50 [1] | MIC [2] | IC50 [3] | MIC (E. coli NCTC 13352) | MIC (E. cloacae M 20) | MIC (K. pneumoniae S 21) | MIC (K. pneumoniae H 525) | MIC (E. coli 7 MP) | MIC (P. aeruginosa ATCC 27853) | MIC (K. pneumoniae B 88) | MIC (P. aeruginosa 2779) | MIC (C. frundaii 58 MP) | MIC (E. coli NCTC 13351) | MIC (P. aeruginosa R 20) | MIC (E. coli M 50) | MIC (E. coli M 49) | MIC (P. aeruginosa PAO1) | zone of inhibition at 0.25 µg/disc (E. coli NCTC 13353; [4]) | zone of inhibition at 0.5 µg/disc (E. coli NCTC 13353; [4]) | zone of inhibition at 1 µg/disc (E. coli NCTC 13353; [4]) | further results
1 | NCCOc1ccccc1CC(=O)NNC(=O)[C@@H]1CC[C@@H]2CN1C(=O)N2OS(=O)(=O)O [Example 2, (2S,5R)-Sulfuric Acid mono-[2-(N′-{2-[2-(2-amino-ethoxy)-phenyl]-acetyl}-hydrazinocarbonyl)-7-oxo-1,6-diaza-bicyclo[3.2.1]oct-6-yl]ester] | 0.119 µM | 1 µg/mL (≈ 2.19 µM) | 3.77 µM | 1 µg/mL (≈ 2.19 µM) | 2 µg/mL (≈ 4.37 µM) | 2 µg/mL (≈ 4.37 µM) | 1 µg/mL (≈ 2.19 µM) | 2 µg/mL (≈ 4.37 µM) | > 32 µg/mL | > 32 µg/mL | > 32 µg/mL | 16 µg/mL (≈ 35 µM) | 1 µg/mL (≈ 2.19 µM) | > 32 µg/mL | 1 µg/mL (≈ 2.19 µM) | 2 µg/mL (≈ 4.37 µM) | > 32 µg/mL | 21 mm | 24 mm | 28 mm | zone of inhibition at […] (E. coli NCTC 13353; [4]): 17 mm; zone of inhibition at 0.25 µg/disc (E. coli NCTC 13353; Compound alone): 11 mm; zone of inhibition at 0.5 µg/disc (E. coli NCTC 13353; Compound alone): 14 mm; zone of inhibition at 1 µg/disc (E. coli NCTC 13353; Compound alone): 16 mm; zone of inhibition at 0.25 µg/disc (E. coli M50; [4]): 13 mm; zone of inhibition at 0.5 µg/disc (E. coli M50; [4]): 16.5 mm; zone of inhibition at 1 µg/disc (E. coli M50; [4]): 18.5 mm; zone of inhibition at […] (E. coli M50; [4]): 10 mm; zone of inhibition at 0.25 µg/disc (E. coli M50; Compound alone): 10 mm; zone of inhibition at 0.5 µg/disc (E. coli M50; Compound alone): 14 mm; zone of inhibition at 1 µg/disc (E. coli M50; Compound alone): 16 mm
2 | O=C(Cc1ccc(O)cc1)NNC(=O)[C@@H]1CC[C@@H]2CN1C(=O)N2OS(=O)(=O)[O-].[Na+] [Example 1, Sodium Salt of (2S,5R)-Sulfuric Acid mono-[2-(N′-(4-hydroxyphenyl-acetyl)-hydrazinocarbonyl)-7-oxo-1,6-diaza-bicyclo[3.2.1]oct-6-yl]ester] | 0.103 µM | 0.5 µg/mL | 0.315 µM | 0.25 µg/mL | 1 µg/mL | 2 µg/mL | 0.5 µg/mL | 1 µg/mL | > 32 µg/mL | 0.5 µg/mL | > 32 µg/mL | 32 µg/mL | 0.25 µg/mL | > 32 µg/mL | 0.5 µg/mL | 2 µg/mL | > 32 µg/mL | 18 mm | 21 mm | 25 mm | zone of inhibition at […] (E. coli NCTC 13353; [4]): 16 mm; zone of inhibition at 0.25 µg/disc (E. coli NCTC 13353; Compound alone): 14.5 mm; zone of inhibition at 0.5 µg/disc (E. coli NCTC 13353; Compound alone): 15.5 mm; zone of inhibition at 1 µg/disc (E. coli NCTC 13353; Compound alone): 17 mm; zone of inhibition at 0.25 µg/disc (E. coli M50; [4]): 16 mm; zone of inhibition at 0.5 µg/disc (E. coli M50; [4]): 19 mm; zone of inhibition at 1 µg/disc (E. coli M50; [4]): 22 mm; zone of inhibition at […] (E. coli M50; [4]): 13 mm; zone of inhibition at 0.25 µg/disc (E. coli M50; Compound alone): 12 mm; zone of inhibition at 0.5 µg/disc (E. coli M50; Compound alone): 13.5 mm; zone of inhibition at 1 µg/disc (E. coli M50; Compound alone): 16 mm
